US20240376085A1 (Janssen Pharmaceutica NV, priority 2021, published 2024)

Tests used:
[1] = molecular target: T1, IL-17A : IL-17RA binding (Homo sapiens, UniProt Q16552, K93Q); experiment: IL-17A(FLAG-tagged):IL-17RA(His-tagged) binding disruption Eu-HTRF assay, Protocol 1; conditions: FLAG-IL-17A 2.5 nM at 2x final concentration; average if tested more than once
T1 construct: Name: IL-17A-Flag
In short: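 IC50 came from a one-site competition fit of the acceptor/donor (665/620 nm) HTRF ratio. His-tagged IL-17RA, Eu-anti-FLAG and D2-anti-His were added after a 1 h rt compound preincubation with FLAG-tagged IL-17A dimer in PBS/0.01% Triton X-100, followed by 2 h at rt before reading.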

[2] = system: IL-17A-induced G-CSF production in human normal keratinocyte (NHK); experiment: NHK assay: IL-17A-induced G-CSF production in normal human keratinocytes; assay type: cell-based; conditions: 24 h, IL-17A 5 ng/mL, average if tested more than once
In short: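 IC50 derives from G-CSF in supernatants, quantified by HTRF from a standard curve, with CellTiter-Glo viability compared to DMSO control. Before a 24 h, 37°C culture of normal human keratinocytes at 3000–4000 cells/well, compound dilutions were preincubated 1 h at rt with human IL-17A (5 ng/mL final), with 0.2% DMSO and 5% FBS.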

T1 sequence (Q16552 with tags, fused parts or gaps K93Q): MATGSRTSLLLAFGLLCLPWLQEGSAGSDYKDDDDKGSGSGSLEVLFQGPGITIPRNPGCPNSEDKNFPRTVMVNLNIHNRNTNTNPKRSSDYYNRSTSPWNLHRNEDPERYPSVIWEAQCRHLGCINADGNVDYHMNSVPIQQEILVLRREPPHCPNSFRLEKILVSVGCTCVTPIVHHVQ

Structure (SMILES)	IC50 [1] [nM]	IC50 ([2]; Homo sapiens, Keratinocyte) [nM]	IC50 [2] [nM]
CC(C(F)F)n1cc(C(=O)N[C@H](c2nc3cc([C@@H](C)NC(=O)CCC(F)(F)F)ccc3[nH]2)C2CCC(F)(F)CC2)nn1 (stereo partly drawn) [Example 85, N—((S)-(4,4-Difluorocyclohexyl)(5-((R)-1-(4,4,4-trifluorobutanamido)ethyl)-1H-benzo[d]imidazol-2-yl)methyl)-1-(1,1-difluoropropan-2-yl)-1H-1,2,3-triazole-4-carboxamide]	> 100	> 100	–
Cc1nonc1C(=O)N[C@H](c1nc2ccc([C@H](NC(=O)CC3CC(F)(F)C3)C3CC3)cc2[nH]1)[C@H]1C[C@H](CC(F)(F)F)C1 (single isomer, unassigned) [Example 245]	> 100	> 100	–
CC(C)C(NC(=O)CCC(F)(F)F)c1ccc2[nH]c([C@@H](NC(=O)c3ccnn3C)C3CCC(F)(F)CC3)nc2c1 (single isomer, unassigned) [Example 44, N—((S)-(4,4-Difluorocyclohexyl)(5-((S*)-2-methyl-1-(4,4,4-trifluorobutanamido)propyl)-1H-benzo[d]imidazol-2-yl)methyl)-1-methyl-1H-pyrazole-5-carboxamide]	> 100	> 100	–
CC(C)n1nccc1C(=O)N[C@@H](c1nc2ccc([C@H](NC(=O)CC3CC(F)(F)C3)C3CC3)cc2[nH]1)[C@@H]1CCCCO1 (relative stereo) [Example 251, N—((S*)-(6-((R)-Cyclopropyl(2-(3,3-difluorocyclobutyl)acetamido)methyl)-1H-benzo[d]imidazol-2-yl)((S*)-tetrahydro-2H-pyran-2-yl)methyl)-1-isopropyl-1H-pyrazole-5-carboxamide]	> 100	> 100	–
C[C@@H](NC(=O)CCC(F)(F)F)c1ccc2nc([C@@H](NC(=O)c3cn(CC(F)(F)F)nc3C3CC3)C3CCC(F)(F)CC3)[nH]c2c1 [Example 75, 3-Cyclopropyl-N—((S)-(4,4-difluorocyclohexyl)(6-((R)-1-(4,4,4-trifluorobutanamido)ethyl)-1H-benzo[d]imidazol-2-yl)methyl)-1-(2,2,2-trifluoroethyl)-1H-pyrazole-4-carboxamide]	> 100	> 100	–
C[C@@H](NC(=O)CCC(F)(F)F)c1ccc2nc([C@@H](NC(=O)c3cc(F)ccc3F)C3CCC(F)(F)CC3)[nH]c2c1 [Example 123, N—((S)-(4,4-Difluorocyclohexyl)(6-((R)-1-(4,4,4-trifluorobutanamido)ethyl)-1H-benzo[d]imidazol-2-yl)methyl)-2,5-difluorobenzamide]	> 100	> 100	–
COCCn1cc(C(=O)N[C@H](c2nc3cc([C@@H](C)NC(=O)CCC(F)(F)F)ccc3[nH]2)C2CCC(F)(F)CC2)nn1 [Example 16, N—[(S)-(4,4-Difluorocyclohexyl)-[6-[(1R)-1-(4,4,4-trifluorobutanoylamino)ethyl]-1H-benzimidazol-2-yl]methyl]-1-(2-methoxyethyl)triazole-4-carboxamide]	> 100	> 100	–
CC(CC(=O)N[C@@H](c1ccc2nc([C@H](CC(C)(C)C(F)(F)F)NC(=O)c3nonc3C3CC3)[nH]c2c1)C1CC1)C(F)(F)F (single isomer, unassigned) [Example 181, 4-Cyclopropyl-N—((S)-1-(6-((R)-cyclopropyl((R*)-4,4,4-trifluoro-3-methylbutanamido)methyl)-1H-benzo[d]imidazol-2-yl)-4,4,4-trifluoro-3,3-dimethylbutyl)-1,2,5-oxadiazole-3-carboxamide]	< 50	< 50	–
C[C@@H](NC(=O)CCC(F)(F)F)c1ccc2nc([C@@H](NC(=O)c3cnn(C)c3C(F)(F)F)C3CCC(F)(F)CC3)[nH]c2c1 [Example 58, N—((S)-(4,4-Difluorocyclohexyl)(6-((R)-1-(4,4,4-trifluorobutanamido)ethyl)-1H-benzo[d]imidazol-2-yl)methyl)-1-methyl-5-(trifluoromethyl)-1H-pyrazole-4-carboxamide]	> 100	> 100	–

Second part, led by results:

IC50 [1] [nM]	Structure (SMILES)	IC50 ([2]; Homo sapiens, Keratinocyte) [nM]	IC50 [2] [nM]
> 100	CCn1nc(C(=O)N[C@H](c2nc3cc([C@@H](C)NC(=O)CCC(F)(F)F)ccc3[nH]2)C2CCC(F)(F)CC2)cc1C(F)(F)F [Example 92, N—((S)-(4,4-Difluorocyclohexyl)(5-((R)-1-(4,4,4-trifluorobutanamido)ethyl)-1H-benzo[d]imidazol-2-yl)methyl)-1-ethyl-5-(trifluoromethyl)-1H-pyrazole-3-carboxamide]	> 100	–
< 50	Cc1nonc1C(=O)N[C@H](c1nc2cc([C@@H](C)NC(=O)CCC(F)(F)F)ccc2[nH]1)[C@@H]1CCCC(F)(F)C1 [Example 264, N—((S)—((R)-3,3-Difluorocyclohexyl)(5-((R)-1-(4,4,4-trifluorobutanamido)ethyl)-1H-benzo[d]imidazol-2-yl)methyl)-4-methyl-1,2,5-oxadiazole-3-carboxamide]	> 100	–
> 100	CC(C)n1nccc1C(=O)N[C@@H](CC(C)(C)C(F)(F)F)c1nc2ccc([C@H](NC(=O)CC3CC(F)(F)C3)C3CC3)cc2[nH]1 [Example 177, N—((S)-1-(6-((R)-Cyclopropyl(2-(3,3-difluorocyclobutyl)acetamido)methyl)-1H-benzo[d]imidazol-2-yl)-4,4,4-trifluoro-3,3-dimethylbutyl)-1-isopropyl-1H-pyrazole-5-carboxamide]	< 50	–
< 50	CC(OCC(NC(=O)c1nonc1C1CC1)c1nc2ccc([C@H](NC(=O)CC3CC(F)(F)C3)C3CC3)cc2[nH]1)C(F)(F)F (single isomer, unassigned) [Example 153, 4-Cyclopropyl-N-((1R*)-1-(6-((R)-cyclopropyl(2-(3,3-difluorocyclobutyl)acetamido)methyl)-1H-benzo[d]imidazol-2-yl)-2-((1,1,1-trifluoropropan-2-yl)oxy)ethyl)-1,2,5-oxadiazole-3-carboxamide]	> 100	–
> 100	C[C@@H](NC(=O)CCC(F)(F)F)c1ccc2[nH]c([C@@H](NC(=O)c3cn(CC(F)(F)F)nn3)C3CCC(F)(F)CC3)nc2c1 [Example 24, N—[(S)-(4,4-Difluorocyclohexyl)-[6-[(1R)-1-(4,4,4-trifluorobutanoylamino)ethyl]-1H-benzimidazol-2-yl]methyl]-1-(2,2,2-trifluoroethyl)triazole-4-carboxamide]	> 100	–
< 50	CC(C)(OC[C@H](NC(=O)c1nocc1C1CC1)c1nc2cc([C@H](NC(=O)CC3CC(F)(F)C3)C3CC3)ccc2[nH]1)C(F)(F)F [Example 268, 4-Cyclopropyl-N—((R)-1-(5-((R)-cyclopropyl(2-(3,3-difluorocyclobutyl)acetamido)methyl)-1H-benzo[d]imidazol-2-yl)-2-((1,1,1-trifluoro-2-methylpropan-2-yl)oxy)ethyl)isoxazole-3-carboxamide]	50 to 100	–
> 100	C[C@@H](NC(=O)CCC(F)(F)F)c1ccc2[nH]c([C@@H](NC(=O)C3(F)CC3)C3CCC(F)(F)CC3)nc2c1 [Example 96, N—((S)-(4,4-Difluorocyclohexyl)(5-((R)-1-(4,4,4-trifluorobutanamido)ethyl)-1H-benzo[d]imidazol-2-yl)methyl)-1-fluorocyclopropane-1-carboxamide]	> 100	–
< 50	CC(C)(C[C@H](NC(=O)c1nonc1C1CC1)c1nc2ccc([C@H](NC(=O)CC3CC(F)(F)C3)C3CC3)cc2[nH]1)C(F)(F)F [Example 178, 4-Cyclopropyl-N—((S)-1-(6-((R)-cyclopropyl(2-(3,3-difluorocyclobutyl)acetamido)methyl)-1H-benzo[d]imidazol-2-yl)-4,4,4-trifluoro-3,3-dimethylbutyl)-1,2,5-oxadiazole-3-carboxamide]	< 50	–
> 100	Cn1nccc1C(=O)N[C@H](c1nc2cc(C(NC(=O)CCC(F)(F)F)C3CCC3)ccc2[nH]1)C1CCC(F)(F)CC1 (single isomer, unassigned) [Example 43, N—((S)-(5-((R*)-Cyclobutyl(4,4,4-trifluorobutanamido)methyl)-1H-benzo[d]imidazol-2-yl)(4,4-difluorocyclohexyl)methyl)-1-methyl-1H-pyrazole-5-carboxamide]	–	> 100
50 to 100	Cc1nocc1C(=O)N[C@@H](COC(C)(C)C(F)(F)F)c1nc2ccc([C@H](NC(=O)CC3CC(F)(F)C3)C3CC3)cc2[nH]1 [Example 77, N—((R)-1-(6-((R)-Cyclopropyl(2-(3,3-difluorocyclobutyl)acetamido)methyl)-1H-benzo[d]imidazol-2-yl)-2-((1,1,1-trifluoro-2-methylpropan-2-yl)oxy)ethyl)-3-methylisoxazole-4-carboxamide]	50 to 100	–
> 100	Cc1c(C(=O)N[C@H](c2nc3cc([C@@H](C)NC(=O)CCC(F)(F)F)ccc3[nH]2)C2CCC(F)(F)CC2)cnn1CC(F)(F)F [Example 18, N—[(S)-(4,4-Difluorocyclohexyl)-[6-[(1R)-1-(4,4,4-trifluorobutanoylamino)ethyl]-1H-benzimidazol-2-yl]methyl]-5-methyl-1-(2,2,2-trifluoroethyl)pyrazole-4-carboxamide]	> 100	–
